In US9969796B2, “Peptides and binding partners therefor” (priority 2013, dated 2018):

Test system: Drosophila melanogaster
Test: Drosophila melanogaster (fruit fly) injection model
Format: in vivo
Conditions: 250 μg/ml; for flies recovering after 24 hours: 24 hours post-injection; for signs of paralysis in injected flies: cohort of 20 age-matched flies
Experimental: FIG. 17 is a graph showing the results of an experiment to show Drosophila killing by Ece1-III. The percentage of Drosophila death, 24 hours post-infection of 250 μg/ml His-tagged full length Ece1p, Ece1-II (peptide 2) (FIG. 2), and Ece1-III (peptide 3), into a cohort of 20 age-matched flies.
The applicants also determined the effect of administering full length His-tagged Ece1p and Ece1-III in a Drosophila melanogaster (fruit fly) model.

| Molecule | flies recovering after 24 hours [%] | signs of paralysis in injected flies |
| --- | --- | --- |
| CC[C@H](C)[C@H](NC(=O)CNC(=O)[C@H](CCSC)NC(=O)[C@@H](NC(=O)[C@@H](NC(=O)CNC(=O)[C@@H](NC(=O)[C@@H](NC(=O)[C@@H](N)CO)[C@@H](C)CC)[C@@H](C)CC)[C@@H](C)CC)[C@@H](C)CC)C(=O)N[C@@H](CC(C)C)C(=O)NCC(=O)N[C@@H](CC(N)=O)C(=O)N[C@H](C(=O)N1CCC[C@H]1C(=O)N[C@@H](CCC(N)=O)C(=O)N[C@H](C(=O)N[C@H](C(=O)N[C@@H](CCC(N)=O)C(=O)N[C@H](C(=O)N[C@H](C(=O)N[C@@H](CCSC)C(=O)N[C@@H](CO)C(=O)N[C@H](C(=O)N[C@H](C(=O)N[C@@H](CCCCN)C(=O)N[C@@H](C)C(=O)N[C@@H](Cc1ccccc1)C(=O)N[C@@H](CCCCN)C(=O)NCC(=O)N[C@@H](CC(N)=O)C(=O)N[C@@H](CCCCN)C(=O)N[C@@H](CCCNC(=N)N)C(=O)O)C(C)C)[C@@H](C)CC)[C@@H](C)CC)[C@@H](C)CC)[C@@H](C)CC)C(C)C)[C@@H](C)CC [Ece1-III] | 10 | displayed signs of paralysis |
| CC[C@H](C)[C@H](NC(=O)[C@H](C)NC(=O)[C@@H](NC(=O)[C@H](CC(N)=O)NC(=O)[C@H](Cc1ccccc1)NC(=O)[C@H](CCC(=O)O)NC(=O)[C@H](CCC(N)=O)NC(=O)[C@@H]1CCCN1C(=O)[C@H](C)NC(=O)[C@@H]1CCCN1C(=O)[C@@H](NC(=O)[C@@H](NC(=O)[C@@H]1CCCN1C(=O)[C@H](C)NC(=O)[C@H](CCC(N)=O)NC(=O)[C@H](CC(=O)O)NC(=O)[C@H](C)NC(=O)[C@@H]1CCCN1C(=O)[C@H](C)NC(=O)[C@H](C)NC(=O)[C@@H]1CCCN1C(=O)[C@H](C)NC(=O)[C@H](C)NC(=O)[C@@H]1CCCN1C(=O)[C@H](C)NC(=O)[C@@H](NC(=O)[C@@H](N)CC(=O)O)C(C)C)[C@@H](C)O)C(C)C)[C@@H](C)O)C(=O)N[C@H](C(=O)N[C@@H](CCCCN)C(=O)N[C@@H](CCCNC(=N)N)C(=O)O)[C@@H](C)O [Ece1-II] |  | no signs of paralysis |
| full length His-tagged Ece1p: His-tagged full length Ece1 protein of C. albicans | 17.5 | displayed signs of paralysis |
